Structures can show the parent of a compound that is named as a salt.
Experiments:
Type in all cases: biochemical
[1] = target: Human Thrombin (Homo sapiens, UniProt P00734); test: Inhibition of thrombin amidase activity (Kass), chromogenic substrate; details: mean Kass over a range of concentrations; substrate N-benzoyl-Phe-Val-Arg-p-nitroanilide
[2] = test system: human plasma; test: Human plasma anticoagulation, thrombin time (TT); details: concentration required to double thrombin time, linear extrapolation
Method: (§1) Dog plasma and rat plasma is obtained from conscious mixed-breed hounds (either sex, Hazelton-LRE, Kalamazoo, Mich., U.S.A.) or from anesthetized male Sprague-Dawley rats (Harlan Sprague-Dawley, Inc., Indianapolis, Ind., U.S.A.) by venipuncture into 3.8 percent citrate. Fibrinogen is prepared from in-date ACD human blood as the fraction I-2 according to previous procedures and specifications. […] Human fibrinogen is also purchased as 98 percent pure/plasmin free from American Diagnostica, Greenwich, Conn. Coagulation reagents ACTIN, Thromboplastin, and Human plasma are from Baxter Healthcare Corp., Dade Division, Miami, Fla. Bovine thrombin from Parke-Davis ([…], Mich.) is used for coagulation assays in plasma.
(§2) Coagulation assay procedures are as previously described. […] A CoAScreener coagulation instrument (American LABor, Inc.) is used for all coagulation assay measurements. The prothrombin time (PT) is measured by adding 0.05 mL saline and 0.05 mL Thromboplastin-C reagent to 0.05 mL test plasma. The activated partial thromboplastin time (APTT) is measured by incubation of 0.05 mL test plasma with 0.05 mL Actin reagent for 120 seconds followed by 0.05 mL CaCl2 (0.02M). The thrombin time (TT) is measured by adding 0.05 mL saline and 0.05 mL thrombin (10 NIH units/mL) to 0.05 mL test plasma. The compounds of Formula I are added to human or animal plasma over a wide range of concentrations to determine prolongation effects on the APTT, PT, and TT assays. Linear extrapolations are performed to estimate the concentrations required to double the clotting time for each assay.

[3] = test system: human plasma; test: Human plasma anticoagulation, activated partial thromboplastin time (APTT); details: concentration required to double APTT, linear extrapolation
Method: as §1, §2

[4] = test system: human plasma; test: Human plasma anticoagulation, prothrombin time (PT); details: concentration required to double PT, linear extrapolation
Method: as §1, §2

| Compound | Kass Human Thrombin [1] | Human Plasma Anticoagulation 2x Clotting time TT [2] | Human Plasma Anticoagulation 2x Clotting time APTT [3] | Human Plasma Anticoagulation 2x Clotting time PT [4] |
| --- | --- | --- | --- | --- |
| Cl.NC(N)=NC/C=C/CNC(=O)[C@@H]1CCCN1C(=O)[C@H](N)Cc1ccccc1 (relative stereo) [Example 8, D-Phe-Pro-NHCH2 -trans-CH=CHCH2 NHC(NH)NH2.HCl] | 5.3 × 10^6 (L/mole) | 130 ng/mL | – | – |
| Cl.NC[C@H]1CC[C@H](CNC(=O)[C@@H]2CCCN2C(=O)[C@H](N)Cc2ccccc2)CC1 (relative stereo) [Example 12, D-Phe-Pro-NHCH2 -trans-4-(aminomethyl)cyclohexane.HCl] | 0.44 × 10^6 (L/mole) | 1,700 ng/mL | – | – |
| CCS(=O)(=O)N[C@H](CC1CCCCC1)C(=O)N1CCC[C@H]1C(=O)NCCCCN=C(N)N.Cl [Example 2, EtSO2 -D-Cha-Pro-Agm.HCl] | 4.4 × 10^6 (L/mole) | 170 ng/mL | – | – |
| CCOC(=O)N[C@H](Cc1ccccc1)C(=O)N1CCC[C@H]1C(=O)NCCCCN=C(N)N.Cl [Example 3, EtOCO-D-Phe-Pro-Agm.HCl] | 2.1 × 10^6 (L/mole) | 590 ng/mL | – | – |
| Cl.NCc1cccc(CNC(=O)[C@@H]2CCCN2C(=O)[C@H](N)Cc2ccccc2)c1 [Example 11, D-Phe-Pro-m-NHCH2 C6 H4 CH2 NH2.HCl] | 0.064 × 10^6 (L/mole) | 8,800 ng/mL | – | – |
| Cl.Nc1ccc(CCNC(=O)[C@@H]2CCCN2C(=O)[C@H](N)Cc2ccccc2)cc1 [Example 14, D-Phe-Pro-p-NHCH2 CH2 C6 H4 NH2.HCl] | 0.021 × 10^6 (L/mole) | 21,000 ng/mL | – | – |
| Cl.N=C(N)c1cccc(CNC(=O)[C@@H]2CCCN2C(=O)[C@H](N)Cc2ccccc2)c1 [Example 16, D-Phe-Pro-m-NHCH2 C6 H4 C(NH)NH2.0.75HCl] | 0.97 × 10^6 (L/mole) | 650 ng/mL | 8,600 ng/mL | 8,500 ng/mL |
| N=C(N)c1ccc(CNC(=O)[C@@H]2CCCN2C(=O)[C@H]2C[C@H]3CCCC[C@H]3CN2)cc1 [Example 19, D-3-Piq-Pro-p-NHCH2 C6 H4 C(NH)NH2.3HCl] | 11 × 10^6 (L/mole) | 58 ng/mL | 300 ng/mL | 540 ng/mL |
| CCS(=O)(=O)N[C@H](Cc1ccccc1)C(=O)N1CCC[C@H]1C(=O)NCCc1cccc(C(=N)N)c1.Cl [Example 27, EtSO2 -D-Phe-Pro-m-NHCH2 CH2 -C6 H4 C(=NH)NH2.HCl] | 0.29 × 10^6 (L/mole) | – | – | 27,000 ng/mL |
| Cl.Cl.N=C(N)c1ccc(CCNC(=O)[C@@H]2CCCN2C(=O)[C@@H]2NCC[C@@H]3CCCC[C@@H]32)cc1 [Example 28, D-1-Piq-pro-p-NHCH2 CH2 -C6 H4 C(=NH)NH2.2HCl] | 0.95 × 10^6 (L/mole) | – | 8,100 ng/mL | 8,300 ng/mL |
| Cl.Cl.N=C(N)c1cccc(CCNC(=O)[C@@H]2CCCN2C(=O)[C@@H]2NCC[C@@H]3CCCC[C@@H]32)c1 [Example 29, D-1-Piq-Pro-m-NHCH2 CH2 -C6 H4 C(=NH )NH2.2HCl] | 0.76 × 10^6 (L/mole) | – | 9,800 ng/mL | 15,000 ng/mL |
| Cl.N=C(N)c1ccc(CCCNC(=O)C2CCCN2C(=O)C2NCCC3CCCCC32)cc1 (stereo not drawn) [Example 32, 1-Piq-Pro-p-NHCH2 CH2 CH2 -C6 H4 C(=NH)NH2.2HCl] | 0.13 × 10^6 (L/mole) | 3,100 ng/mL | – | – |
| Cl.O=C(O)CNC(CC1CCCCC1)C(=O)N1CCCC1C(=O)NCCC1CCNCC1 [Example 54, HO2 CCH2 -D-Cha-Pro-4-NHCH2 CH2 -piperidine.HCl] | 2.8 × 10^6 (L/mole) | 140 ng/mL | 3,300 ng/mL | 2,200 ng/mL |
| N=C(N)N1CCC(CCNC(=O)[C@@H]2CCCN2C(=O)[C@@H](CC2CCCCC2)NCC(=O)O)CC1 [Example 57, HO2 CCH2 -D-Cha-Pro-4-NHCH2 CH2 -1-amidinopiperidine.HCl] | 39 × 10^6 (L/mole) | 14 ng/mL | 360 ng/mL | 340 ng/mL |
| Cl.O=C(O)CN[C@H](CC1CCCCC1)C(=O)N1CCC[C@H]1C(=O)NCC1=CCNCC1 [Example 58, HO2 CCH2 -D-Cha-Pro-4-NHCH2 -3,4-dehydro-piperidine.HCl] | 0.60 × 10^6 (L/mole) | 710 ng/mL | – | – |
| Cl.O=C(O)CN[C@H](CC1CCCCC1)C(=O)N1CCC[C@H]1C(=O)NCCC1=CCNCC1 [Example 59, HO2 CCH2 -D-Cha-Pro-4-NHCH2 CH2 -3,4-dehydro-piperidine.HCl] | 1.10 × 10^6 (L/mole) | 420 ng/mL | 5,500 ng/mL | 7,000 ng/mL |
| Cl.O=C(O)CN[C@H](CC1CCCCC1)C(=O)N1CCC[C@H]1C(=O)NCCCC1=CCNCC1 [Example 60, HO2 CCH2 -D-Cha-Pro-4-NHCH2 CH2 CH2 -3,4-dehydro-piperidine.HCl] | 0.24 × 10^6 (L/mole) | 3,200 ng/mL | – | – |
| N=C(N)C1CCC(CNC(=O)[C@@H]2CCCN2C(=O)[C@@H](CC2CCCCC2)NCC(=O)O)NC1 (stereo partly drawn) [Example 67, HO2 CCH2 -D-Cha-Pro-2-NHCH2 -5-amidinopiperidine.HCl] | 11 × 10^6 (L/mole) | 34 ng/mL | 1,800 ng/mL | 1,300 ng/mL |
| Cl.Nc1cc(CNC(=O)[C@@H]2CCCN2C(=O)[C@@H](CC2CCCCC2)NCC(=O)O)ccn1 [Example 73, HO2 CCH2 -D-Cha-Pro-4-NHCH2 -2-aminopyridine.HCl] | 28 × 10^6 (L/mole) | 21 ng/mL | 340 ng/mL | 330 ng/mL |
| Cl.Nc1ccc(CCNC(=O)[C@@H]2CCCN2C(=O)[C@@H](CC2CCCCC2)NCC(=O)O)cn1 [Example 75, HO2 CCH2 -D-Cha-Pro-5-NHCH2 CH2 -2-aminopyridine.HCl] | 0.45 × 10^6 (L/mole) | – | – | – |
| N=C(N)c1ccc(CNC(=O)[C@@H]2CCCN2C(=O)[C@@H](CCC2CCCCC2)NCC(=O)O)cc1 [Example 88, hydrochloride] | – | 4 ng/mL | 100 ng/mL | 200 ng/mL |
| CCC(CC)C(=O)N[C@@H](CCS(C)(=O)=O)C(=O)N1CCC[C@H]1C(=O)NCc1ccc(C(=N)N)cc1 [Example 91, (C2 H5)2 CHCO-Met(O2)-Pro-p-NHCH2 C6 H4 C(NH)NH2.HCl] | – | 63 ng/mL | 3,000 ng/mL | 3,500 ng/mL |
| CS(=O)(=O)CC(=O)N[C@H](CC1CCCCC1)C(=O)N1CCC[C@H]1C(=O)NCc1ccc(C(=N)N)cc1 [Example 92, (N-methylsulfonylacetyl)-L-cyclohexylalanyl-N-[[4-(aminoiminomethyl)phenyl]methyl]-L-prolinamide hydrochloride] | – | 8.9 ng/mL | 210 ng/mL | 340 ng/mL |
| (S-cis)-N-[[4-(amino iminomethyl)phenyl]methyl]-1-[N-(ethylsulfonyl)-D-phenylglycyl]-1H-indole- 2-carboxamide hydrochloride [Example 44] | – | 4 ng/mL | 100 ng/mL | 170 ng/mL |

Reference: US5710130A, “Antithrombotic agents” (Eli Lilly and Company, priority 1995, dated 1998)
